From patent publication US5171662A, “Method of detecting HIV protease activity” (priority 1991, dated 1992)
Non-standard residues stand in square brackets, D forms with d. Residues, ends and D or L forms follow the SMILES beside them. No end group written: not given here. *: point of attachment. Sta = CC(C)C[C@H](N)[C@@H](O)CC(=O)O; Isovaleryl = CC(C)CC(=O)*

Legend:
[1] = test system: HIV protease; details: cited from earlier work
[2] = test system: HIV protease; details: cited from earlier work; remark: listed apart in the source
[3] = test system: synthetic protease (99-residue peptide with the sequence proposed for the HIV protease); details: cited from earlier work
[4] = biological target: HIV protease (HIV-1 M:B_HXB2R, UniProt P04585); assay: Cleavage of tetradecapeptide substrate by HIV protease, Ang I determined by RIA; format: biochemical
Text: The tetradecapeptide (TDP) substrate, Asp-Arg-Val-Tyr-Ile-His-Pro-Phe-His-Leu-Leu-Val-Tyr-Ser, was obtained from Peninsula Laboratories, Inc., Belmont, Calif. The Ang I RIA kit was purchased from Baxter Health Care Corporation, Cambridge, Mass. Recombinant HIV-1 protease was purified and refolded from E. coli as published previously (Tomasselli, A. G. et. al. (1990) Biochemistry 29, 264-269). The TDP substrate has an HIV protease cleavage site which when cut at the Leu-Leu bond produces authentic Ang I. The Ang I RIA kit detected the Angiotesin I if produced.
The various steps of the in vitro assay to screen a compound were performed as follows. The series of assays are done for each compound, each assay using a different concentration of compound. The various reagents were added to the system in the order which they are listed.
1. 52 μl assay buffer (0.1M Sodium Acetate, 10% glycerol, 3 mM EDTA, 5% ethylene glycol, 1 mg/ml BSA, pH 5.5)
2. 15 μl HIV-1 protease (final Concentration in assay 0.75 μg/ml). For inhibition studies, 12 μl of inhibitor solution was added prior to adding the enzyme.
3. 135 μl of 2.8 uM substrate (final concentration about 1.9 μM)
4. […]
5. […] Following an overnight equilibration at room temperature, the tubes are drained and the amount of radioactivity (^125 I-labeled Ang I) remaining on the tube is determined in a gamma counter. […]

Compound | inhibition of cleavage of gag precursor polyproteins by HIV protease [1] | inhibition of autoprocessing which liberates the protease from the precursor [2] | inhibition of proteolytic action of the synthetic protease [3] | cleavage of substrate by HIV protease [4]
CC(C)CC(=O)N[C@H](C(=O)N[C@H](C(=O)N[C@@H](CC(C)C)[C@@H](O)CC(=O)N[C@@H](C)C(=O)N[C@@H](CC(C)C)[C@@H](O)CC(=O)O)C(C)C)C(C)C [pepstatin A] (Isovaleryl-VV[Sta]A[Sta]-OH) | can be inhibited by pepstatin A | can be inhibited | can be inhibited by pepstatin | 
DRVYIHPFHLLVYS [TDP] |  |  |  | HIV protease cleaves the Ang I substrate
